Literature values, collected in publication PMC5356695, “A phase 1 study of oral ridaforolimus in pediatric patients with advanced solid tumors” (Oncotarget, 2016).

Tests used:
[1] = system: pediatric patients with advanced solid tumors; set-up: method as in PMID 27185573; conditions: dalotuzumab alone; cited from earlier work
[2] = system: children with refractory solid tumors; set-up: method as in PMID 17947729; conditions: cited from earlier work
[3] = system: children with recurrent or refractory solid tumors; set-up: method as in PMID 21690471; conditions: highest dose tested 150 mg/m^2, once weekly; cited from earlier work
[4] = system: neuroblastoma and high-grade glioma; set-up: method as in PMID 22033322; conditions: single-agent therapy; cited from earlier work
[5] = system: in vivo solid tumor models; set-up: method as in PMID 17635004; conditions: cited from earlier work

Compound: dalotuzumab: anti-IGF1R monoclonal antibody
- Patients with confirmed partial response [1]: 1 of 20

Compound: CO[C@H]1C[C@@H]2CC[C@@H](C)[C@@](O)(O2)C(=O)C(=O)N2CCCC[C@H]2C(=O)O[C@H]([C@H](C)C[C@@H]2CC[C@@H](OCCO)[C@H](OC)C2)CC(=O)[C@H](C)/C=C(\C)[C@@H](O)[C@@H](OC)C(=O)[C@H](C)C[C@H](C)/C=C/C=C/C=C/1C [everolimus]
- RP2D ([2]; children, oral): 5 mg/m^2
- Patients with DLTs (grade 3 increased ALT, mucositis, diarrhea) ([2]; highest dose of 6.5 mg/m^2, oral): 3 of 3

Compound: CO[C@H]1C[C@@H]2CC[C@@H](C)[C@@](O)(O2)C(=O)C(=O)N2CCCC[C@H]2C(=O)O[C@H]([C@H](C)C[C@@H]2CC[C@@H](OC(=O)C(C)(CO)CO)[C@H](OC)C2)CC(=O)[C@H](C)/C=C(\C)[C@@H](O)[C@@H](OC)C(=O)[C@H](C)C[C@H](C)/C=C/C=C/C=C/1C [temsirolimus]
- Patients with DLT (grade 3 anorexia) [3]: 1 of 7
- Disease stabilization [4]: Prolonged stable disease was observed

Compound: CO[C@H]1C[C@@H]2CC[C@@H](C)[C@@](O)(O2)C(=O)C(=O)N2CCCC[C@H]2C(=O)O[C@H]([C@H](C)C[C@@H]2CC[C@@H](O)[C@H](OC)C2)CC(=O)[C@H](C)/C=C(\C)[C@@H](O)[C@@H](OC)C(=O)[C@H](C)C[C@H](C)/C=C/C=C/C=C/1C [rapamycin]
- Models with significant differences in event-free survival distributions compared with controls [5]: 27 of 36
